30 compounds from ChEMBL document CHEMBL1649404, “Synthesis and biological evaluation of new 4β-anilino-4'-O-demethyl-4-desoxypodophyllotoxin derivatives as potential antitumor agents” (Eur J Med Chem, 2011) can be followed below.

What is called IC50 is the concentration that inhibits the measured activity by half. The term inhibition in vivo denotes how much of the control response was suppressed.

Molecules are shown by their SMILES.

The subject of one series is A549. As to the kind of experiment: Cytotoxicity against human A549 cells after 72 hrs by MTT assay. In kind it is functional, cell-based. Particulars: A549, 72 h. Background: Tetrazolium assays rely on reduction of a dye to a coloured formazan, in cell work by metabolically active cells.
In the next series the test system is KB. Put plainly: Cytotoxicity against human KB cells after 72 hrs by MTT assay. In kind it is functional, cell-based.
A short description of series [1]: Cytotoxicity against human KB/VCR cells after 72 hrs by MTT assay. In kind it is functional, cell-based.
A short description of series [2]: Cytotoxicity against human 95-D cells after 72 hrs by MTT assay. Format: functional, cell-based.
Series [3] can be described thus: Anticancer activity against human 95-D cells xenografted in BALB/c mouse at 10 mg/kg administered intramuscularly every other day for 20 days measured post last dose relative to control. In kind it is functional. The conditions noted are these: route intramuscular.
A short description of series [4]: Anticancer activity against human 95-D cells xenografted in BALB/c mouse assessed as inhibition of tumor growth at 10 mg/kg administered intramuscularly every other day for 20 days measured post last dose. Format: functional. The conditions noted are these: im, 480 h, route intramuscular. (Xenograft models place foreign cells or tissue in a host animal.)
In a further series the test system is Mus musculus. As to the kind of experiment: Toxicity in BALB/c mouse xenografted with human 95-D cells assessed as body weight at 10 mg/kg administered intramuscularly every other day for 20 days measured post last dose (reference value: 21.6 +/- 0.6 gm). Format: organism-based. Also on record: dose 10 mg/kg, route intramuscular. The conditions noted are these: in vivo, im, 480 h.

Consider `COc1cc([C@@H]2c3cc4c(cc3[C@@H](Nc3cccc(CN5CCCCC5)c3)[C@H]3COC(=O)[C@H]23)OCO4)cc(OC)c1O`, for which the IC50 came out at 0.5 µM in the series with A549, 970 nM in the series on KB, 3.44 µM in series [1] and 0.2 µM in series [2].

For the compound `COc1cc([C@@H]2c3cc4c(cc3[C@@H](Nc3ccc(CCN5CCCC5)cc3)[C@H]3COC(=O)[C@H]23)OCO4)cc(OC)c1O`, the IC50 in the series on A549 stood at 0.24 µM; with KB, 210 nM; in series [1] it was 1.57 µM; in series [2], 0.036 µM.

Consider `COc1cc([C@@H]2c3cc4c(cc3[C@@H](Nc3ccc(CCN5CCOCC5)cc3)[C@H]3COC(=O)[C@H]23)OCO4)cc(OC)c1O`, for which the IC50 was determined as 1.94 µM in the series on A549, 780 nM in the series on KB, 1.27 µM in series [1] and 11.5 µM in series [2].

On to `CCN(CC)CCc1ccc(N[C@@H]2c3cc4c(cc3[C@@H](c3cc(OC)c(O)c(OC)c3)[C@H]3C(=O)OC[C@@H]32)OCO4)cc1`, for which the IC50 in the series with A549 turned out to be 0.4 µM; in the series with KB it was 450 nM; in series [1], 1.53 µM; in series [2], 9.84 µM.

For the compound `COc1cc([C@@H]2c3cc4c(cc3[C@@H](Nc3ccc(CCN5CCCCC5)cc3)[C@H]3COC(=O)[C@H]23)OCO4)cc(OC)c1O`, the concentration for half-maximal inhibition (IC50) is 13.4 µM in the series on A549, 4210 nM with KB, 19.1 µM in series [1] and 17.2 µM in series [2].

In the case of `COc1cc([C@@H]2c3cc4c(cc3[C@@H](Nc3ccc(CCN(C)C)cc3)[C@H]3COC(=O)[C@H]23)OCO4)cc(OC)c1O`, the IC50 in the series with A549 is 19 µM; in the series on KB, 2420 nM; in series [1], 3.95 µM; in series [2], 17.1 µM.

For `COc1cc([C@@H]2c3cc4c(cc3[C@@H](Nc3ccc(CCN(C(C)C)C(C)C)cc3)[C@H]3COC(=O)[C@H]23)OCO4)cc(OC)c1O`, the IC50 in the series with A549 stood at 0.49 µM; in the series with KB, 440 nM; in series [1], 2.2 µM; in series [2] it was 10 µM.

Take `COc1cc([C@@H]2c3cc4c(cc3[C@@H](Nc3cccc(CCN5CCCC5)c3)[C@H]3COC(=O)[C@H]23)OCO4)cc(OC)c1O`: the IC50 in the series with A549 is 3.91 µM; in the series on KB, 390 nM; in series [1], 1.85 µM; in series [2] it was 1.17 µM.

`COc1cc([C@@H]2c3cc4c(cc3[C@@H](Nc3cccc(CCN5CCOCC5)c3)[C@H]3COC(=O)[C@H]23)OCO4)cc(OC)c1O`: the IC50 was 5.1 µM with A549, 480 nM in the series on KB, 2.09 µM in series [1] and 14.8 µM in series [2].

Turning to `CCN(CC)CCc1cccc(N[C@@H]2c3cc4c(cc3[C@@H](c3cc(OC)c(O)c(OC)c3)[C@H]3C(=O)OC[C@@H]32)OCO4)c1`, the IC50 in the series on A549 stood at 7.49 µM; in the series with KB it was 770 nM; in series [1], 3.87 µM; in series [2], 14.6 µM.

As to `COc1cc([C@@H]2c3cc4c(cc3[C@@H](Nc3cccc(CCN5CCCCC5)c3)[C@H]3COC(=O)[C@H]23)OCO4)cc(OC)c1O`, the IC50 in the series with A549 came out at 2.75 µM; with KB it was 430 nM; in series [1] it was 1.78 µM; in series [2], 7.4 µM.

Regarding `COc1cc([C@@H]2c3cc4c(cc3[C@@H](Nc3ccc(CC(=O)N5CCCC5)cc3)[C@H]3COC(=O)[C@H]23)OCO4)cc(OC)c1O`, the concentration for half-maximal inhibition (IC50) was 15.9 µM in the series with A549, 1520 nM in the series on KB, 2.2 µM in series [1] and above 50 µM in series [2].

Turning to `COc1cc([C@@H]2c3cc4c(cc3[C@@H](Nc3ccc(CC(=O)N5CCCCC5)cc3)[C@H]3COC(=O)[C@H]23)OCO4)cc(OC)c1O`, the IC50 with A549 came to 5.2 µM; with KB, 400 nM; in series [1], 2.33 µM; in series [2], 25.8 µM.

With `CCN(CC)C(=O)Cc1cccc(N[C@@H]2c3cc4c(cc3[C@@H](c3cc(OC)c(O)c(OC)c3)[C@H]3C(=O)OC[C@@H]32)OCO4)c1`, the IC50 in the series on A549 was 4.78 µM; in the series with KB, 420 nM; in series [1] it was 27.2 µM; in series [2], above 50 µM.

For `COc1cc([C@@H]2c3cc4c(cc3[C@@H](Nc3ccc(OCCO)cc3)[C@H]3COC(=O)[C@H]23)OCO4)cc(OC)c1O`, the figures for the Activity (in series [3]; with Mus musculus) were 45.4% and 17 g, respectively. Further, the inhibition in vivo at 10 mg/kg in series [4] worked out at 37.5%. Further, the IC50 in the series on A549 came out at 4.54 µM; in the series on KB, 2880 nM; in series [1] it was 6.51 µM; in series [2] it was 4.13 µM.

In the case of `COc1cc([C@@H]2c3cc4c(cc3[C@@H](Nc3ccc(COCCO)cc3)[C@H]3COC(=O)[C@H]23)OCO4)cc(OC)c1O`, the IC50 in the series with A549 is 5.11 µM; with KB, 3120 nM; in series [1], 7.39 µM; in series [2], 0.55 µM.

In the case of `COc1cc([C@@H]2c3cc4c(cc3[C@@H](Nc3ccc(COCCCO)cc3)[C@H]3COC(=O)[C@H]23)OCO4)cc(OC)c1O`, the IC50 with A549 was determined as 7.45 µM; with KB, 6000 nM; in series [1] it was 5.08 µM; in series [2], 12 µM.

Regarding `COc1cc([C@@H]2c3cc4c(cc3[C@@H](Nc3ccc(COCCCCO)cc3)[C@H]3COC(=O)[C@H]23)OCO4)cc(OC)c1O`, the IC50 with A549 is 8.5 µM; in the series on KB, 6600 nM; in series [1], 9.55 µM; in series [2], 20.3 µM.

In the case of `COc1ccc(C(=O)Nc2ccc(N[C@@H]3c4cc5c(cc4[C@@H](c4cc(OC)c(O)c(OC)c4)[C@H]4C(=O)OC[C@@H]43)OCO5)cc2)cc1`, the IC50 with A549 amounted to 3.41 µM; in the series with KB, 6760 nM; in series [1], 9.28 µM; in series [2], 0.44 µM.

With `COc1cc([C@@H]2c3cc4c(cc3[C@@H](Nc3ccc(NC(=O)c5ccc(F)cc5)cc3)[C@H]3COC(=O)[C@H]23)OCO4)cc(OC)c1O`, the IC50 in the series on A549 was 1.56 µM; with KB, 2910 nM; in series [1], 5.31 µM; in series [2], 1.08 µM.

For `COc1cc([C@@H]2c3cc4c(cc3[C@@H](Nc3ccc(NC(=O)c5ccc([N+](=O)[O-])cc5)cc3)[C@H]3COC(=O)[C@H]23)OCO4)cc(OC)c1O`, the IC50 in the series with A549 is 11 µM; in the series with KB, above 50000 nM; in series [1], 13.7 µM; in series [2] it was 3.41 µM.

Take `COc1cc([C@@H]2c3cc4c(cc3[C@@H](Nc3ccc(NC(=O)CCc5ccccc5)cc3)[C@H]3COC(=O)[C@H]23)OCO4)cc(OC)c1O`: the Activity in series [3] was 62.4%; with Mus musculus, 20.2 g. Also, in series [4], the inhibition in vivo at 10 mg/kg came to 9.2%. Moreover, the IC50 with A549 turned out to be 3.31 µM; in the series with KB, 6880 nM; in series [1], 3.7 µM; in series [2], 1.15 µM.

For `COc1cc([C@@H]2c3cc4c(cc3[C@@H](Nc3ccc(NC(=O)CCc5ccccc5[N+](=O)[O-])cc3)[C@H]3COC(=O)[C@H]23)OCO4)cc(OC)c1O`, the IC50 was found to be 8.43 µM with A549, 6690 nM in the series on KB, 5.3 µM in series [1] and 0.41 µM in series [2].

`COc1cc([C@@H]2c3cc4c(cc3[C@@H](Nc3ccc(NC(=O)/C=C/c5ccccc5)cc3)[C@H]3COC(=O)[C@H]23)OCO4)cc(OC)c1O`: the IC50 is above 50 µM in the series on A549, 6530 nM in the series with KB, 2.8 µM in series [1] and 1.25 µM in series [2].

Take `COc1ccc(CCC(=O)Nc2ccc(N[C@@H]3c4cc5c(cc4[C@@H](c4cc(OC)c(O)c(OC)c4)[C@H]4C(=O)OC[C@@H]43)OCO5)cc2)cc1`: the IC50 was above 50 µM in the series on A549, above 50000 nM in the series on KB, 3.08 µM in series [1] and 1.23 µM in series [2].

With `COc1cc([C@@H]2c3cc4c(cc3[C@@H](Nc3ccc(NC(=O)c5ccc(Br)cc5)cc3)[C@H]3COC(=O)[C@H]23)OCO4)cc(OC)c1O`, the IC50 in the series with A549 stood at 18.9 µM; in the series with KB, 8750 nM; in series [1] it was 5.72 µM; in series [2], 1.66 µM.

Take `COc1cc([C@@H]2c3cc4c(cc3[C@@H](Nc3ccc(NC(=O)c5ccc(Cl)cc5)cc3)[C@H]3COC(=O)[C@H]23)OCO4)cc(OC)c1O`: the IC50 in the series with A549 worked out at 19.5 µM; in the series on KB, 22100 nM; in series [1], 13.1 µM; in series [2], 6.56 µM.

In the case of `COc1cc([C@@H]2c3cc4c(cc3[C@@H](N(C(=O)c3ccc([N+](=O)[O-])cc3)c3ccc(NC(=O)c5ccc([N+](=O)[O-])cc5)cc3)[C@H]3COC(=O)[C@H]23)OCO4)cc(OC)c1O`, the IC50 is above 50 µM in the series on A549, above 50000 nM with KB, above 50 µM in series [1] and 15.7 µM in series [2].

For `COc1cc([C@@H]2c3cc4c(cc3[C@@H](N(C(=O)c3ccc(Cl)cc3)c3ccc(NC(=O)c5ccc(Cl)cc5)cc3)[C@H]3COC(=O)[C@H]23)OCO4)cc(OC)c1O`, the IC50 in the series with A549 was above 50 µM; in the series with KB, above 50000 nM; in series [1] it was 14.2 µM; in series [2] it was 19.6 µM.

Turning to `COc1cc([C@@H]2c3cc4c(cc3[C@@H](O[C@@H]3O[C@@H]5CO[C@@H](C)O[C@H]5[C@H](O)[C@H]3O)[C@H]3COC(=O)[C@H]23)OCO4)cc(OC)c1O` [ETOPOSIDE], the IC50 in the series on A549 was determined as 2.56 µM; in the series on KB it was 4610 nM; in series [1], 83.4 µM; in series [2], 20.2 µM.
